In patent publication US20050037067A1, “3,7-Diazabicyclo [3.3.1]formulations as anti-arrhythmic compounds” (priority 2001, published 2005):
Structures can show the parent of a compound that is named as a salt.

Assay: Solubility of the salt in vehicle compared to water alone
Type: physicochemical
Experimental: Salt was dissolved in the 40/60 (w/w %) hydroxypropyl-β-cyclodextrin/water vehicle.
The solubility of the salt was almost 40 times higher in this vehicle compared to water alone.
Salt was dissolved in PEG 400, ethanol and the surfactant Solutol™ (BASF; comprises polyethylene glycol esters of 12-OH-stearic acid). Water was added to the final volume. The solubility of the benzenesulphonate salt was approximately 4 times higher in this vehicle than it is in water alone.

- solubility in vehicle compared to water alone (vehicle Polyethyleneglycol 400/Ethanol/Solutol/Water (40/10/5/45 w/w %)): approximately 4 times
- solubility in vehicle compared to water alone (vehicle hydroxypropyl-β-cyclodextrin/water (40/60 w/w %)): ~40 times
Compound: CC(C)(C)C(=O)CN1CC2CN(CCCNc3ccc(C#N)cc3)CC(C1)O2 [Compound A, benzenesulphonic acid salt, 4-({3-[7-(3,3-dimethyl-2-oxobutyl)-9-oxa-3,7-diazabicyclo[3.3.1]non-3-yl]propyl}amino)benzonitrile]
